Experimental data published in patent publication US5985826A, “Methods of using hepatic-directed compounds in pretargeting strategies” (NeoRx Corporation, priority 1997, dated 1999).

Experiments:
[1] = Non-target organ uptake of Y-90-DOTA-biotin radioactivity in tumored nude mice; assay type: in vivo; settings: vs historical controls
Experimental: (§1) Having shown that effective clearing could be achieved with the appropriate does of 16 galactose-biotin construct, studies were undertaken in tumored nude mice to evaluate the potential blockade of tumor-associated conjugate by the small 16 galactose-biotin. Mice bearing either SW-1222 colon tumor xenografts or SHT-1 small cell lung cancer (SCLC) tumor xenografts were pretargeted with NR-LU-10-streptavidin conjugate and, 22 hours later, received 46 micrograms of 16 galactose-biotin. After 2 hours, Y-90-DOTA-biotin prepared as described above was administered, and its uptake and retention in tumor and non-target tissues was evaluated by sacrifice and tissue counting for radioactivity 2 hours post-administration.
(§2) The historical controls were conducted with a 3 hour time period between clearing agent and radioactivity administration.

MAb-streptavidin = test: Relative stoichiometry of In-111 DOTA-biotin to I-125 MAb-streptavidin at the tumor target site; assay type: in vivo; settings: I-125 MAb-streptavidin and In-111 DOTA-biotin
Source text: Experiments were. also carried out using I-125 labeled MAb-streptavidin conjugate and In-111 labeled DOTA-biotin to assess the relative stoichiometry of those materials at the tumor target site using 16 galactose-biotin as a clearing agent. […] When a similar protocol was employed with the 16 galactose-biotin construct, the ratio of DOTA-biotin to MAb-streptavidin was only 2.65. […] Experiments to assess the nature of this blockade are underway.

[2] = system: SW-1222 colon tumor xenografts; test: Tumor targeting of Y-90-DOTA-biotin after NR-LU-10-streptavidin and 16 galactose-biotin, SW-1222 colon xenograft; assay type: in vivo, nude mice
Experimental: as §1, §2

[3] = system: MAb-streptavidin conjugate; test: Serum/blood clearance of MAb-streptavidin conjugate with galactose cluster-biotin conjugates (precomplexed ex vivo, or given after the conjugate); assay type: in vivo, mouse; settings: precomplexed at 20-fold molar excess; 120 or 12 micrograms i.v.; vs antibody conjugate control; BALB/c female
Experimental: Some or all of these compounds were assayed for their clearance directing activity in two sets of experiments. The first set of experiments involved ex vivo preparation of a precomplexed monoclonal antibody-streptavidin-biotin-galactose cluster conjugate labeled with I-125, intravenous administration of the conjugate in a mouse model, and measuring serum levels of the conjugate over time. The second set of experiments involved intravenous administration of MAb-streptavidin conjugate followed by administration of biotin-galactose cluster conjugate.
NR-LU-10 antibody (MW 150 kD) was conjugated to streptavidin (MW 66 kD) (as described in Example II above), and radiolabeled with ^125 I/PIP-NHS as described below. The antibody component of the conjugate was radioiodinated using p-aryltin phenylate NHS ester (PIP-NHS) and ^125 I sodium iodide. […]
Experiments were designed and executed to evaluate a 16 galactose cluster-biotin construct without the stabilizing tertiary amine structure of the nitrogen of the amide closest to the biotin, the preparation of such a stabilized construct being described above in Example V. BALB/c female mice (20-25 g) were injected i.v. with 120 micrograms of NR-LU-10-streptavidin conjugate radiolabeled with I-125, and blood was serially collected from n=3 mice. The clearance of the conjugate from the blood was measured of these control mice. […]

[4] = system: I-125 NR-LU-10-streptavidin conjugate; test: In vivo pretargeting-format clearance of I-125 NR-LU-10-streptavidin conjugate from circulation; design: species or system mice (BALB/c)
Experimental: In a third set of experiments conducted in vivo in the pretargeting format (e.g., administration of radiolabeled MAb-streptavidin conjugate followed by administration of clearing agent), the (galactosyl)8 -LC-biotin conjugate was also compared to galactose-HSA-biotin prepared as described above. This comparison was conducted in a Balb/c mouse model and was for the ability to clear an I-125 labeled monoclonal antibody-streptavidin conjugate (1-125 LU-10-streptavidin) from circulation as a function of time. […] Subsequent experiments have further shown that hepatic-directed compounds containing 16 galactose residues provide for even better clearance than those containing 8 galactose residues.
Having shown that precomplexed material could clear rapidly and efficiently from the blood, experiments were conducted to measure the effectiveness of various doses of-the 16 galactose-biotin construct to form rapidly clearing complexes in vivo. Mice received 400 micrograms of I-125 NR-LU-10streptavidin conjugate intravenously, and approximately 22 hours later received the 16 galactose-biotin construct at doses of 100 50, or 10:1 (456, 228 and 45 micrograms, respectively) molar excess to circulating monoclonal antibody-streptavidin conjugate. […] The larger doses may be sufficiently high to achieve competition between complexed and non-complexed 16-galactose-biotin for liver receptors, thereby precluding all but a small initial fraction of the complexed MAb-streptavidin conjugate from clearing via the liver. Following the plateau period, clearing of the conjugate remained slow and was eventually less complete than that achieve with the lower dose (approximately 10% of the conjugate remained in circulation at the higher doses, in comparison to 2% for the lower dose). […] If the 16 galactose-biotin construct is unstable, sufficient biotin may be released at higher doses to that a significant portion of circulating conjugate became blocked thereby and, consequently, was not cleared via hepatic-mediated uptake.

[5] = system: SHT-1 small cell lung cancer (SCLC) tumor xenografts; test: Tumor targeting of Y-90-DOTA-biotin after NR-LU-10-streptavidin and 16 galactose-biotin, SHT-1 SCLC xenograft; assay type: in vivo, nude mice
Experimental: as §1, §2

[6] = 46 micrograms, Y-90-DOTA-biotin, vs historical controls with (galactose)35-HSA-(biotin)2
[7] = vs (galactose)35-HSA-(biotin)2 historical controls

SMILES	Liver uptake ([1]; 2 hours between clearing agent and radioactivity)	Non-target organ uptake except liver ([1]; Y-90 radioactivity)	Ratio of DOTA-biotin to MAb-streptavidin at the tumor (MAb-streptavidin)	Tumor targeting, high antigen-expressing colon xenograft [2, 6]	Tumor uptake of radioactivity, SW-1222, overall assessment [2, 7]	Blood clearance of precomplexed conjugate [3]	Efficiency at removing circulating conjugate, lower and higher doses ([4]; 12, 23 and 228 microgram, vs 46 microgram)	Rebound effect, lower doses ([4]; 12 and 23 microgram)	Clearing effectiveness at 46 micrograms vs (galactose)35-HSA-(biotin)2 ([4]; 46 microgram, vs previously optimized dose)	Effectiveness at clearing conjugate, each dose ([4]; 100, 50 or 10:1 molar excess (456, 228 and 45 micrograms), about 22 h after 400 micrograms conjugate)	Optimal clearing dose ([4]; decreasing dose comparison) [microgram]	Conjugate remaining in circulation, higher doses ([4]; higher doses (456 and 228 micrograms; 100:1, 50:1))	Duration of plateau in conjugate clearance ([4]; larger doses (456, 228 micrograms), after administration of 16 galactose-biotin)	Conjugate remaining in circulation, lower dose ([4]; lower dose (45 micrograms; 10:1)) [%]	Clearing of MAb-streptavidin from the circulation, summary ([4]; vascular and extravascular spaces)	Tumor targeting, low antigen-expressing SCLC xenograft [5, 6]	Tumor uptake of radioactivity, SHT-1, overall assessment [5, 7]	Ability to clear I-125 LU-10-streptavidin from circulation ([4]; Balb/c mouse, vs galactosylated-HSA-biotin)
CN(CCCCSC1O[C@H](CO)[C@H](O)[C@H](O)[C@H]1O)C(=O)CCCCCN(CCCCCC(=O)N(C)CCCCSC1O[C@H](CO)[C@H](O)[C@H](O)[C@H]1O)C(=O)CCCCCN(CCCCCC(=O)N(CCCCCC(=O)N(C)CCCCSC1O[C@H](CO)[C@H](O)[C@H](O)[C@H]1O)CCCCCC(=O)N(C)CCCCSC1O[C@H](CO)[C@H](O)[C@H](O)[C@H]1O)C(=O)CCCCCN(CCCCCC(=O)N(CCCCCC(=O)N(CCCCCC(=O)N(C)CCCCSC1O[C@H](CO)[C@H](O)[C@H](O)[C@H]1O)CCCCCC(=O)N(C)CCCCSC1O[C@H](CO)[C@H](O)[C@H](O)[C@H]1O)CCCCCC(=O)N(CCCCCC(=O)N(C)CCCCSC1O[C@H](CO)[C@H](O)[C@H](O)[C@H]1O)CCCCCC(=O)N(C)CCCCSC1O[C@H](CO)[C@H](O)[C@H](O)[C@H]1O)C(=O)CCCCCN(CCCCCC(=O)N(CCCCCC(=O)N(CCCCCC(=O)N(CCCCCC(=O)N(C)CCCCSC1O[C@H](CO)[C@H](O)[C@H](O)[C@H]1O)CCCCCC(=O)N(C)CCCCSC1O[C@H](CO)[C@H](O)[C@H](O)[C@H]1O)CCCCCC(=O)N(CCCCCC(=O)N(C)CCCCSC1O[C@H](CO)[C@H](O)[C@H](O)[C@H]1O)CCCCCC(=O)N(C)CCCCSC1O[C@H](CO)[C@H](O)[C@H](O)[C@H]1O)CCCCCC(=O)N(CCCCCC(=O)N(CCCCCC(=O)N(C)CCCCSC1O[C@H](CO)[C@H](O)[C@H](O)[C@H]1O)CCCCCC(=O)N(C)CCCCSC1O[C@H](CO)[C@H](O)[C@H](O)[C@H]1O)CCCCCC(=O)N(CCCCCC(=O)N(C)CCCCSC1O[C@H](CO)[C@H](O)[C@H](O)[C@H]1O)CCCCCC(=O)N(C)CCCCSC1O[C@H](CO)[C@H](O)[C@H](O)[C@H]1O)C(=O)CCCCCNC(=O)CCCC[C@@H]1SC[C@@H]2NC(=O)N[C@@H]21 (stereo partly drawn) [16 galactose-biotin]	slightly higher levels	comparable in all tissues except liver	2.65	slightly lower	roughly equivalent	extremely rapid clearance from the blood	less efficient at removing circulating conjugate	significant rebound effect	more effective than the previously optimized dose of (galactose)35 -HSA-(biotin)2	effective at clearing conjugate	46	approximately 10%	about 1 hour	2	effective construct for clearing MAb-streptavidin from the circulation	slightly higher	roughly equivalent	
CN(CCCCSC1O[C@H](CO)[C@H](O)[C@H](O)[C@H]1O)C(=O)CCCCCN(CCCCCC(=O)N(C)CCCCSC1O[C@H](CO)[C@H](O)[C@H](O)[C@H]1O)C(=O)CCCCCN(CCCCCC(=O)N(CCCCCC(=O)N(C)CCCCSC1O[C@H](CO)[C@H](O)[C@H](O)[C@H]1O)CCCCCC(=O)N(C)CCCCSC1O[C@H](CO)[C@H](O)[C@H](O)[C@H]1O)C(=O)CCCCCN(CCCCCC(=O)N(CCCCCC(=O)N(CCCCCC(=O)N(C)CCCCSC1O[C@H](CO)[C@H](O)[C@H](O)[C@H]1O)CCCCCC(=O)N(C)CCCCSC1O[C@H](CO)[C@H](O)[C@H](O)[C@H]1O)CCCCCC(=O)N(CCCCCC(=O)N(C)CCCCSC1O[C@H](CO)[C@H](O)[C@H](O)[C@H]1O)CCCCCC(=O)N(C)CCCCSC1O[C@H](CO)[C@H](O)[C@H](O)[C@H]1O)C(=O)CCCCCNC(=O)CCCC[C@@H]1SC[C@@H]2NC(=O)N[C@@H]21 (stereo partly drawn) [(galactosyl)8 -LC-biotin]																		comparable to galactosylated-HSA-biotin
